Data on 41 compounds can be found in the RepoRT retention time repository (doi:10.1021/ac101825k).

A short description of the data set: RP, Waters Symmetry C18, 100 × 2.1 mm; A: water + 0.1% formic acid, pH 3; B: acetonitrile + 0.1% formic acid, pH 3; gradient (min/%B) 0/5 24/95 29/95 29.1/5. Conditions: stereoisomer not certain.
Turning to `Oc1cc(O)c2c(c1)OC(c1ccc(O)c(O)c1)C(O)C2` (single isomer, unassigned; (-)) [(-)-Epicatechin], the LC retention time amounted to 7.82 min.

In the case of `COc1cc(C=CC(=O)O)cc(OC)c1OC` [3,4,5-Trimethoxycinnamic_acid], the LC retention time was determined as 12.3 min.

As to `Cc1cc(=O)oc2cc(OC3OC(C(=O)O)C(O)C(O)C3O)ccc12` (stereo unspecified) [4-Methylumbelliferylglucuronide], the LC retention time worked out at 8.77 min.

`Nc1ncnc2c1ncn2C1OC(CO)C(O)C1O` (stereo unspecified) [Adenosine]: the LC retention time was found to be 1.52 min.

With `O=c1cc(-c2ccc(O)c(-c3c(O)cc(O)c4c(=O)cc(-c5ccc(O)cc5)oc34)c2)oc2cc(O)cc(O)c12` [Amentoflavone], the LC retention time worked out at 14.2 min.

For `CN1CCc2cccc3c2C1Cc1ccc(O)c(O)c1-3` (stereo unspecified) [Apomorphine], the LC retention time was 7.2 min.

Turning to `COc1ccc2cc3[n+](cc2c1OC)CCc1cc2c(cc1-3)OCO2` [Berberine], the LC retention time amounted to 9.9 min.

As to `COc1c2ccoc2cc2oc(=O)ccc12` [Bergapten], the LC retention time stood at 14.5 min.

With `CN1CCc2cc3c(cc2C1C1OC(=O)c2c1ccc1c2OCO1)OCO3` (stereo unspecified) [Bicuculline], the LC retention time is 8.51 min.

In the case of `COc1ccc(-c2coc3cc(O)cc(O)c3c2=O)cc1` [Biochanin_A], the LC retention time stood at 16.1 min.

In the case of `CN1Cc2c(ccc3c2OCO3)C2C(O)Cc3cc4c(cc3C21)OCO4` (stereo unspecified) [Chelidonine], the LC retention time was 9.5 min.

With `C=CC1CN2CCC1CC2C(O)c1ccnc2ccccc12` (stereo unspecified) [Cinchonine], the LC retention time stood at 3.47 min.

Turning to `CCC1CN2CCc3cc(OC)c(OC)cc3C2CC1CC1NCCc2cc(OC)c(OC)cc21` (stereo unspecified) [Emetine], the LC retention time is 7.62 min.

As for `CCC1OC(=O)C(C)C(OC2CC(C)(OC)C(O)C(C)O2)C(C)C(OC2OC(C)CC(N(C)C)C2O)C(C)(O)CC(C)C(=O)C(C)C(O)C1(C)O` (stereo unspecified) [Erythromycin], the LC retention time was 11.2 min.

For `O=c1c(-c2ccc(O)cc2)coc2cc(O)cc(O)c12` [Genistein], the LC retention time worked out at 13.1 min.

On to `Cc1nccc2c1[nH]c1ccccc12` [Harmane], for which the LC retention time was determined as 7.81 min.

With `CC(C)C(NC(=O)Cc1c[nH]c2ccccc12)C(=O)O` (stereo unspecified) [IAA-Val], the LC retention time worked out at 12.1 min.

For the compound `O=C(O)c1c[nH]c2ccccc12` [Indole-3-carboxylic_acid], the LC retention time stood at 10.5 min.

Consider `O=c1c(O)c(-c2ccc(O)cc2)oc2cc(O)cc(O)c12` [Kaempferol], for which the LC retention time was determined as 13.3 min.

In the case of `c1coc(CNc2ncnc3nc[nH]c23)c1` [Kinetin], the LC retention time stood at 6.57 min.

In the case of `COc1ccc(CC2c3cc(OC)c(OC)cc3CCN2C)cc1OC` (stereo unspecified) [Laudanosine], the LC retention time turned out to be 8.39 min.

`CC1OC(OC2C(Oc3cc(O)c4c(c3)OC(c3ccc(O)cc3)CC4=O)OC(CO)C(O)C2O)C(O)C(O)C1O` (stereo unspecified) [Naringin]: the LC retention time worked out at 10.5 min.

For `NC(=O)c1ccc[n+](C2OC(COP(=O)(O)OP(=O)(O)OCC3OC(n4cnc5c(N)ncnc54)C(O)C3O)C(O)C2O)c1` (stereo unspecified) [Nicotinamide_dinucleotide], the LC retention time was 1.2 min.

Turning to `NC(Cc1ccccc1)C(=O)O` (stereo unspecified) [Phenylalanine], the LC retention time is 2.27 min.

On to `O=C(CCc1ccc(O)cc1)c1c(O)cc(O)cc1OC1OC(CO)C(O)C(O)C1O` (stereo unspecified) [Phlorizin], for which the LC retention time was 11.1 min.

For `O=c1c(O)c(-c2ccc(O)c(O)c2)oc2cc(O)cc(O)c12` [Quercetin], the LC retention time is 12.2 min.

Regarding `COC(=O)C1C2CC3c4[nH]c5cc(OC)ccc5c4CCN3CC2CC(OC(=O)c2cc(OC)c(OC)c(OC)c2)C1OC` (stereo unspecified) [Reserpine], the LC retention time turned out to be 12.6 min.

With `Oc1ccc(C=Cc2cc(O)cc(O)c2)cc1` [Resveratrol], the LC retention time came out at 11.5 min.

In the case of `COC1C=COC2(C)Oc3c(C)c(O)c4c(O)c(c(C=NN5CCN(C)CC5)c(O)c4c3C2=O)NC(=O)C(C)=CC=CC(C)C(O)C(C)C(O)C(C)C(OC(C)=O)C1C` (stereo unspecified) [Rifampicin], the LC retention time is 15.1 min.

In the case of `C=C(C)C1Cc2c(ccc3c2OC2COc4cc(OC)c(OC)cc4C2C3=O)O1` (stereo unspecified) [Rotenone], the LC retention time was determined as 18 min.

For `CC1OC(OCC2OC(Oc3c(-c4ccc(O)c(O)c4)oc4cc(O)cc(O)c4c3=O)C(O)C(O)C2O)C(O)C(O)C1O` (stereo unspecified) [Rutin], the LC retention time is 9.72 min.

As to `COc1ccc2c(c1OC)C(=O)OC2C1c2c(cc3c(c2OC)OCO3)CCN1C` (stereo unspecified) [S,R-Noscapine], the LC retention time was 10 min.

In the case of `Cc1cc2nc3cc(C)c(N)cc3[n+](-c3ccccc3)c2cc1N` [Safranin], the LC retention time turned out to be 10.9 min.

Consider `CC1NCCc2cc(O)c(O)cc21` (stereo unspecified) [Salsolinol], for which the LC retention time stood at 1.08 min.

For the compound `COc1cc(C=CC(=O)OCC[N+](C)(C)C)cc(OC)c1O` [Sinapine], the LC retention time stood at 6.46 min.

For the compound `Oc1ccc(CC2NCCc3cc(O)c(O)cc32)cc1O` (stereo unspecified) [Tetrahydropapaveroline], the LC retention time is 1.14 min.

Turning to `NC(Cc1c[nH]c2ccccc12)C(=O)O` (stereo unspecified) [Tryptophan], the LC retention time was 4.07 min.

With `NCCc1ccc(O)cc1` [Tyramine], the LC retention time came to 8.45 min.

Take `CC1OC(OC2C(c3c(O)cc(O)c4c(=O)cc(-c5ccc(O)cc5)oc34)OC(CO)C(O)C2O)C(O)C(O)C1O` (stereo unspecified) [Vitexin-2''-O-rhamnoside]: the LC retention time amounted to 9.58 min.

With `COc1cc(O)c(CC=C(C)C)c(O)c1C(=O)C=Cc1ccc(O)cc1` [Xanthohumol], the LC retention time was 18.5 min.

Consider `COc1ccccc1C(=O)O` [o-Anisic acid], for which the LC retention time worked out at 10.1 min.
